Several values for one entry are separate records, joined by “and”; a condition that tells them apart may be missing. Identical values can stand only once.
Assays:
[1] = Example 1 safety and tolerability (adverse events, vital signs, ECG, laboratory); type: in vivo, human
Protocol: On Day 1, study drug was initiated at a starting dose of 0.5 ng/kg/min, and dose increases occurred every 30 minutes (+5 minutes) in increments of 0.5 ng/kg/min up to 2.0 ng/kg/min or the individual tolerated dose. If dose-limiting adverse events (e.g., headache, flushing, jaw pain, myalgia, nausea, or vomiting) occurred that could not be tolerated by the subject, or if the subject experienced symptomatic hypotension, then the dose was reduced in a step-wise manner by 0.5 ng/kg/min every 30 minutes (+5 minutes) until a tolerated dose was determined or the infusion was stopped until the symptoms resolved at which point the study drug was reinitiated at a previously tolerated dose. If symptomatic hypotension or a dose-limiting adverse event occurred during administration of iloprost at the starting dose (i.e., 0.5 ng/kg/min), the infusion was reduced to 0.25 ng/kg/min. If the dose of 0.25 ng/kg/min was not tolerated due to symptomatic hypotension or if a dose-limiting adverse event occurred, the study drug was discontinued, and re-initiation of the infusion could have been attempted after the event had resolved or had been treated. Blood pressure and heart rate were monitored 15 minutes (+5 minutes) prior to and after all dose changes. The maximum tolerated dose was maintained for the remaining 6-hour daily period. At the end of the 6-hour infusion period, the dose was stopped. Subjects were to be monitored for up to 1 hour after completion of study drug infusion (i.e., vital signs were obtained 15 minutes [±5 minutes] and 1 hour [±15 minutes] after completion of the infusion).
Vital signs were measured prior to study drug administration and at 15 minutes (±5 minutes) prior to and after all dose changes during the infusion. Additionally, vital signs were monitored at 15 minutes (±5 minutes) and 1 hour (±15 minutes) after completion of the 6-hour infusion.
Safety parameters included adverse events, physical examination findings, vital sign measurements (heart rate and blood pressure), 12-lead electrocardiogram (ECG) findings, and standard clinical laboratory measurements (chemistry and hematology).

[2] = Example 3 solution stability of fully diluted ready-to-use iloprost in IV bags (HPLC); type: physicochemical
Protocol: Iloprost 100 μg/mL injection product is administered to patients by IV bag infusion over a period of six hours. The fully diluted ready to use iloprost is prepared in pharmacy cleanroom using sterile preparation standards (USP Chapter <797>) by pharmacy trained and licensed staff. The fully diluted ready to use drug product may be prepared several hours ahead of treatment with storage at ambient conditions or several days ahead of treatment with storage at refrigerated (2-8° C.) conditions. The IV bags are prepared using empty sterile IV bags which are filled with 99 mL of 0.9% NaCl and 1.0 mL of iloprost 100 µg/mL injection product. The bags are then manually mixed gently to provide a uniform solution. […] IV Bag Sample Preparation: Two 50 mL syringes with 18-gauge needles were assembled. 1.0 mL syringe with 18-gauge needle was assembled. Using a 50 mL syringe, 50 mL of 0.9% NaCl was transferred into an empty IV bag (sterile, ICU Medical) using the injection port. Using a second 50 mL syringe, 49 mL of 0.9% NaCl was transferred into the same IV bag using the injection port resulting in 99 mL of solution. Using the 1 ml syringe, 1.0 mL of iloprost 100 μg/mL injection product was transferred into the IV bag using the injection port. The needle was removed and the port was securely closed. The IV bag was gently inverted several times to mix. During inversion, it was occasionally paused to squeeze the injection port area to ensure liquid rinsed into area several times. Sampling Procedure: For sampling, a 3 mL syringe was assembled with an 18-gauge needle. Using a 3 ml syringe, 2 mL of IV bag solution was withdrew through the injection port and 1 mL was transferred to a HPLC vial for neat injection and the other 1 ml was transferred to a back-up HPLC vial. HPLC vials were stored at refrigerated conditions 2-8° C. Sample Storage and Sampling: For each testing conditions (i-iv discussed above), 12 IV bag samples were prepared (6 IV bags for condition ia)-see below for sampling time). For condition i), all 12 IV bags were then placed into 25° C./60% RH stability chamber ensuring each bag is resting on its largest surface area side. After the first time point, the IV bags were removed from the chamber and each IV bag was mixed by inversion several times. Sampling from each IV bag was taken for HPLC analysis. After sampling, the IV bags were placed back into 25° C./60% RH stability chamber ensuring each bag is resting on its largest surface area side, until next sampling time. At each sampling time, the IV bags were removed from the chamber and each IV bag was mixed by inversion several times before samples were removed. For conditions ii) and iii), all 12 IV bags for each testing condition was placed into a 2-8° C. stability chamber ensuring each bag is resting on its largest surface area side. After 5 days have passed for condition ii) or after 8 days have passed for condition iii), the IV bags were removed from the chamber and allowed to equilibrate to room temperature. Each IV bag was mixed by inversion several times. Sampling from each IV bag was taken for HPLC analysis. Then the IV bags were placed in the 25° C./60% RH stability chamber and sampled at certain time points as discussed herein. […]

[3] = Table 8A, IV bag 25° C./60% RH, 2 h
[4] = Table 8A, IV bag 25° C./60% RH, 4 h
[5] = Table 8A, IV bag 25° C./60% RH, 6 h
[6] = Table 8A, IV bag 25° C./60% RH, 8 h
[7] = Table 8A, IV bag 25° C./60% RH, 24 h
[8] = Table 8B, Batch 1, 25° C./60% RH, 8 hr
[9] = Table 8B, Batch 1, 25° C./60% RH, 12 hr
[10] = Table 8B, Batch 1, 25° C./60% RH, 48 hr
[11] = Table 8B, Batch 1, 25° C./60% RH, 96 hr
[12] = Table 8C, Batch 2, 25° C./60% RH, 8 hr
[13] = Table 8C, Batch 2, 25° C./60% RH, 12 hr
[14] = Table 8C, Batch 2, 25° C./60% RH, 48 hr
[15] = Table 8C, Batch 2, 25° C./60% RH, 96 hr
[16] = Table 8D, Batch 1, 5° C. for 5 days
[17] = Table 8D, Batch 1, 5° C. for 5 days, 25° C./60% RH for 8 hr
[18] = Table 8D, Batch 1, 5° C. for 5 days, 25° C./60% RH for 12 hr
[19] = Table 8E, Batch 2, 5° C. for 5 days
[20] = Table 8E, Batch 2, 5° C. for 5 days, 25° C./60% RH for 8 hr
[21] = Table 8E, Batch 2, 5° C. for 5 days, 25° C./60% for 12 hr

With `CC#CCC(C)[C@H](O)/C=C/[C@@H]1[C@H]2C/C(=C/CCCC(=O)O)C[C@H]2C[C@H]1O` (stereo partly drawn) [Iloprost, (5E)-5-[(3aS,4R,5R,6aS)-5-hydroxy-4-[(E,3S)-3-hydroxy-4-methyloct-1-en-6-ynyl]-3,3a,4,5,6,6a-hexahydro-1H-pentalen-2-ylidene]pentanoic acid] the TEAE abdominal pain ([1]; human, in vivo, 5 days) was 4 [23.5%] subjects (%), the TEAE flushing ([1]; human, in vivo, 5 days) was 5 [29.4%] subjects (%) and the TEAE headache ([1]; human, in vivo, 5 days) was 16 [94.1%] subjects (%). The TEAE nausea ([1]; human, in vivo, 5 days) was 11 [64.7%] subjects (%), the “subjects who experienced TEAEs considered severe by the Investigator” value ([1]; human, in vivo, 5 days) was “Two (11.8%) subjects (%)” and the “subjects who experienced a TEAE” value ([1]; human, in vivo, 5 days) was 17 (100.0%) subjects (%). For the same compound, the “TEAEs related to vital signs, physical examination findings, or ECGs” value ([1]; in vivo) was “no TEAEs”, the bradycardia or tachycardia ([1]; in vivo) was “no bradycardia or tachycardia” and the “changes in chemistry or hematology laboratory values” ([1]; in vivo) was “no clinically significant changes”. The “hypertensive or hypotensive events” value ([1]; in vivo) was “no hypertensive or hypotensive events”, the “deaths, SAEs, AESIs, TEAEs leading to study drug discontinuation” value ([1]; whole study) was “no deaths, SAEs, AESIs, or TEAEs leading to study drug discontinuation” and the “% Initial” value [2, 3] was 100.8% and 99.4% and 100.2% and 99.7% and 100.5% and 100.4%. For the same compound, the “Iloprost (%)” value [2, 3] was 95.0% and 94.2% and 94.8% and 94.7% and 95.3%, the “% Initial” value [2, 4] was 101.0% and 99.5% and 99.6% and 100.3% and 101.3% and 101.9% and the “Iloprost (%)” value [2, 4] was 95.2% and 94.3% and 94.7% and 95.5% and 96.7%. For the same compound, the “% Initial” value [2, 5] was 101.6% and 100.2% and 100.5% and 99.3% and 101.7% and 100.6%, the “Iloprost (%)” value [2, 5] was 95.7% and 95.0% and 95.1% and 93.7% and 95.9% and 95.4% and the “% Initial” value [2, 6] was 100.0% and 101.9% and 101.1% and 99.9%. The “Iloprost (%)” value [2, 6] was 94.3% and 94.8% and 94.6% and 96.2% and 95.3%, the “% Initial” value [2, 7] was 102.2% and 101.4% and 102.0% and 100.1% and 98.9% and 100.5% and the “Iloprost (%)” value [2, 7] was 97.0% and 95.5% and 96.7% and 94.7% and 93.4% and 94.8%. For the same compound, the “Iloprost (%)” value ([2]; Table 8A, IV bag, 1.0 mL 100 μg/mL product + 99 mL 0.9% NaCl, Initial, Samples 1-6) was 94.2% and 94.8% and 94.6% and 94.4% and 94.3% and 94.9%, the “% Initial” value [2, 8] was 100% and 104% and 101% and 103% and the “Iloprost” value [2, 8] was 973.6 ng/mL and 1010 ng/mL and 979.5 ng/mL and 1003 ng/mL and 977.2 ng/mL and 1007 ng/mL. For the same compound, the “% Initial” value [2, 9] was 103% and 104% and 105% and 99%, the “Iloprost” value [2, 9] was 1004 ng/mL and 1009 ng/mL and 978.2 ng/mL and 1042 ng/mL and 975.1 ng/mL and 1005 ng/mL and the “% Initial” value [2, 10] was 103% and 101% and 100%. For the same compound, the “Iloprost” value [2, 10] was 1004 ng/mL and 995.2 ng/mL and 968 ng/mL and 1001 ng/mL and 984.6 ng/mL and 977.3 ng/mL, the “% Initial” value [2, 11] was 104% and 105% and 103% and 102% and 101% and 100% and the “Iloprost” value [2, 11] was 1013 ng/mL and 1017 ng/mL and 970.9 ng/mL and 1014 ng/mL and 994.1 ng/mL and 971.5 ng/mL. The “Iloprost” value ([2]; Table 8B, Batch 1, IV bag, Initial (T = 0), Preparations 1-6) was 975.8 ng/mL and 977.5 ng/mL and 968.7 ng/mL and 942.8 ng/mL and 994.1 ng/mL and 981.9 ng/mL, the “% Initial” value [2, 12] was 102% and 101% and 100% and 96% and the “Iloprost” value [2, 12] was 995.8 ng/mL and 1002 ng/mL and 994.6 ng/mL and 1004 ng/mL and 998.8 ng/mL and 983.3 ng/mL. The “% Initial” value [2, 13] was 101% and 99% and 100% and 98%, the “Iloprost” value [2, 13] was 993.3 ng/mL and 984.1 ng/mL (2×) and 989.6 ng/mL and 994.8 ng/mL and 1005 ng/mL and the “% Initial” value [2, 14] was 101% and 99% and 104% and 100%. The “Iloprost” value [2, 14] was 993.7 ng/mL and 984.2 ng/mL and 994.4 ng/mL and 1032 ng/mL and 1005 ng/mL and 1015 ng/mL, the “% Initial” value [2, 15] was 102% and 99% and 101% and 100% and the “Iloprost” value [2, 15] was 1002 ng/mL and 979.5 ng/mL and 989 ng/mL and 1005 ng/mL and 996.3 ng/mL and 1027 ng/mL. The “Iloprost” value ([2]; Table 8C, Batch 2, IV bag, Initial (T = 0), Preparations 1-6) was 1021 ng/mL and 980.9 ng/mL and 990.7 ng/mL and 980.7 ng/mL and 994.4 ng/mL and 1001 ng/mL, the “% Initial” value [2, 16] was 104% and 98% and 101% and 100% and 99% and the “Iloprost” value [2, 16] was 1050 ng/mL and 931.9 ng/mL and 1024 ng/mL (2×) and 1020 ng/mL and 1001 ng/mL. The “% Initial” value [2, 17] was 99% and 100% and 98% and 102% and 101%, the “Iloprost” value [2, 17] was 1002 ng/mL and 957.3 ng/mL and 993.8 ng/mL and 1040 ng/mL and 1025 ng/mL and 1011 ng/mL and the “% Initial” value [2, 18] was 97% and 99% and 100% and 101%. The “Iloprost” value [2, 18] was 976.5 ng/mL and 943.2 ng/mL and 1015 ng/mL and 1031 ng/mL and 1010 ng/mL and 982.7 ng/mL, the “Iloprost” value ([2]; Table 8D, Batch 1, IV bag, Initial (T = 0)) was 996.6 ng/mL and 1007 ng/mL and 953.6 ng/mL and 1015 ng/mL and 1020 ng/mL and 1036 ng/mL and the “% Initial” value [2, 19] was 102% and 100% and 101%. The “Iloprost” value [2, 19] was 1026 ng/mL and 1009 ng/mL and 1025 ng/mL and 1030 ng/mL and 1011 ng/mL and 987.4 ng/mL, the “% Initial” value [2, 20] was 101% and 99% and 100% and 98% and the “Iloprost” value [2, 20] was 1023 ng/mL and 973.1 ng/mL and 1013 ng/mL and 1012 ng/mL and 996.7 ng/mL and 970.8 ng/mL. The “% Initial” value [2, 21] was 101% and 98% and 102% and 100%, the “Iloprost” value [2, 21] was 1022 ng/mL and 963.3 ng/mL and 1001 ng/mL and the “Iloprost” value ([2]; Table 8E, Batch 2, IV bag, Initial (T = 0)) was 988.4 ng/mL. For the same compound, the “% Initial” value ([2]; Table 8F (5° C. for 8 days to 25° C./60% RH), Batch 1, time point 5° C. for 5 days [sic]) was 103% and 99% and 102% and 100%, the “% Initial” value ([2]; Table 8F, Batch 1, 5° C. for 8 days, 25° C./60% RH for 8 hr) was 99% and 98% and 107% and 100% and the “% Initial” value ([2]; Table 8F, Batch 1, 5° C. for 8 days, 25° C./60% RH for 12 hr) was 101% and 100% and 99%. The “% Initial” value ([2]; Table 8G (5° C. for 8 days to 25° C./60% RH), Batch 2, time point 5° C. for 5 days [sic]) was 99% and 97% and 102%.
